{"source": "patent US20060088475A1", "about": "“Self-immolative magnetic resonance imaging contrast agents sensitive to beta-glucuronidase” (Northwestern University, priority 2004, published 2006)", "key": {"[1]": {"conditions": "phenol of the linker; cited from earlier work"}, "[2]": {"molecular_target": "T1, bovine liver β-glucuronidase (Bos taurus, UniProt A3KMY8)", "T1 construct": "β-glucuronidase isolated from bovine liver was chosen for the current studies; purchased Sigma G 0251; host or cells: bovine liver (tissue isolate)", "T1 sequence (A3KMY8 1-652)": "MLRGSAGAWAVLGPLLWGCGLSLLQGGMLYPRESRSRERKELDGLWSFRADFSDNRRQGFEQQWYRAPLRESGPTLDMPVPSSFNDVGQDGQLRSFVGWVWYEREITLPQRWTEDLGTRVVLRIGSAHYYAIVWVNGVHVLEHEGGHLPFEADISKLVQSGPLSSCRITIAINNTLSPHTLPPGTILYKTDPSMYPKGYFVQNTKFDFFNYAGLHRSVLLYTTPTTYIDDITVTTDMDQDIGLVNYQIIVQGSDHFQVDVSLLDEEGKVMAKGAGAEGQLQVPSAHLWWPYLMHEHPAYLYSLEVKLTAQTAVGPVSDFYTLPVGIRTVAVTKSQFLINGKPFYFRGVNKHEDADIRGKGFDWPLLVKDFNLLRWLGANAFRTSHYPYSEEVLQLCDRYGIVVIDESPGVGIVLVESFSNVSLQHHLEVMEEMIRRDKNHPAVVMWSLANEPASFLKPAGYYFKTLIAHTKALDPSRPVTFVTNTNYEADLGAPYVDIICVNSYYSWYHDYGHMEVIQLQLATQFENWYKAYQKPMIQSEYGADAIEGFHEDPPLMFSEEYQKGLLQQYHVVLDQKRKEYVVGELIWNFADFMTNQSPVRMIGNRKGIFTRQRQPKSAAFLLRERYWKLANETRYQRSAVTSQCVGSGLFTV", "test": "LC-MS analysis of the enzyme reaction mixture", "assay_type": "biochemical", "conditions": "phosphate buffer with 0.01% BSA, pH=7.4, 37° C., after 24 h", "experimental": "LC-MS. […] The alcohol and 1 are readily distinguished by their absorption spectra (PDA), their appropriate negative mode ESI-MS patterns and through spiking with authentic compound. 2 was more difficult to detect but could be observed using fluorescence. The HPLC method was as follows: 0-10% B over 10 min, hold at 10% B for 15 min, with fluorescence using λex=271 nm, λem=314 nm."}, "[3]": {"molecular_target": "T1, bovine liver β-glucuronidase", "test": "Enzyme catalyzed hydrolysis kinetics monitored by UV-visible", "assay_type": "biochemical", "conditions": "for initial rate: 0.2 mM 1, 1.0 mg/ml enzyme, pH 7.4, 37° C.", "experimental": "(§1) General: Bovine liver β-glucuronidase (Type B-1, Sigma G 0251) stability in several buffers was assayed by incubating the enzyme in the desired buffer and sampling its activity at various time intervals using the Sigma quality control assay for β-glucuronidase from bovine liver. It was determined that MOPS and anion mimic (See, e.g., Parker, D. In Crown Compounds: Towards Future Applications; Cooper, S. R., Ed.; VCH: New York, 1992, pp 51-67) engendered the enzyme with poor stability, while 100 mM phosphate with 0.01% (w/v) bovine serum albumin (BSA), pH=7.4 at 37° C. gave suitable stability (>2 h at 37° C. without loss of activity) provided the enzyme concentration was greater than 0.5 mg/ml. The enzyme was stable for at least 24 h at 37° C. at its native pH of 5.0 in 100 mM acetate buffer. All kinetics measurements were made with 0.2 mM substrate, 1, in 510 μL buffer with either 1.0 mg/ml enzyme (those buffers at pH=7.4) or 0.1 mg/ml enzyme (pH=5.0 acetate buffer). For all buffers except serum (due to its opacity), the kinetics were determined simultaneously by both UV-visible and magnetic resonance. The runs were all continuous assays that are known to give the best data (See, e.g., Marangoni, A. G. Enzyme kinetics: a modern approach; Wiley-Interscience: Hoboken, N.J., 2003; Copeland, R. A. Enzymes: a practical introduction to structure, mechanism, and data analysis; VCH Publishers: New York, N.Y., 1996). Each run was performed in triplicate and two controls, one without enzyme and one without substrate, were also measured. […] This trend is in the opposite direction of the kinetics runs that show an increase in T1.\nUV-visible: The enzymatic hydrolysis of the pyranose from 1 and subsequent linker decomposition generates 4-hydroxy-3-nitrobenzyl alcohol. This compound has a maximum absorbance of 422 nm at pH=7.4. The molar absorptivity, E, was determined in triplicate from 0-0.2 mM, on an HP 8452A diode array spectrometer thermostated to 37° C. For 100 mM phosphate, 0.01% (w/v) BSA, pH=7.4 at 37° C. it is 2840±40 M^−1 cm^−1. For 100 mM phosphate, 24 mM NaHCO3, 0.01% (w/v) BSA, pH=7.4 at 37° C. it is 3010±50 M^−1 cm^−1. […] At pH=5.0 in acetate buffer, the maximum is at 354 nm. This overlaps with substrate, 1, absorption. The kinetics were sampled on the HP 8452A at 37° C. every 20 seconds for an hour. The initial rates for pH=7.4 buffers were determined through a linear fit of the first 10% change in absorbance. For the acetate buffer, only a half-life of conversion is reported. […] 4-hydroxy-3-nitrobenzyl alcohol was also present in the acetate runs as determined by LC-MS using 100 mM acetate pH=5 as solvent A."}, "[4]": {"molecular_target": "T1, bovine liver β-glucuronidase", "test": "Enzyme catalyzed hydrolysis kinetics monitored by bulk water T1 relaxation (magnetic resonance)", "assay_type": "biochemical", "experimental": "as §1\n(§2) Magnetic Resonance: T1 was determined at intervals of 2 minutes for the first 30 min and 4 minutes for the next 30 min using a saturation recovery (90-T-90) pulse sequence using the Bruker mq60 operating as detailed in the relaxivity section. This sequence is less accurate than the inversion recovery method, but gives faster results. The runs were performed in triplicate. The substrate-only control was also examined in this manner."}, "[5]": {"test_system": "bovine liver β-glucuronidase", "test": "Enzyme catalyzed hydrolysis kinetics monitored by bulk water T1 relaxation (magnetic resonance)", "assay_type": "biochemical", "conditions": "acetate buffer, over the course of an hour, no enzyme", "experimental": "as §1, §2"}, "[6]": {"test": "T1 relaxivity at 60 MHz, 37° C. (inversion recovery, Gd(III) concentration by ICP-MS)", "assay_type": "physicochemical", "conditions": "for relaxivity r1 / increase in relaxivity on going from anion mimic to human serum: 37° C.; for decrease of relaxivity on addition of carbonate to the buffers: 24 mM carbonate added to MOPS or phosphate/BSA buffer; for decline of relaxivity in anion extracellular mimic: anion extracellular mimic (100 mM NaCl, 0.9 mM Na2HPO4, 30 mM NaHCO3, 0.13 mM sodium citrate, 2.3 mM sodium lactate) versus carbonate-containing buffers; for increase in relaxivity on going from anion mimic to human serum: male human blood serum versus extracellular anion mimic", "experimental": "A 4 mM stock solution of either 1 or 2 in the appropriate buffer was diluted to give 500 μL each of seven approximate concentrations for each run: 0, 0.05, 0.15, 0.3, 0.5, 1.0, and 2.0 mM. The T1 of each concentration was determined using an inversion recovery pulse sequence with appropriate recycle delays on a Bruker mq60 Minispec. This instrument has a proton Larmor frequency of 60 MHz and operates at 37° C. The resulting curves were fit to a monoexponential function to obtain T10.10 μL of each sample was digested in concentrated nitric acid, diluted with water and analyzed for exact Gd(III) concentration using ICP-MS. The reciprocal of the longitudinal relaxation time was plotted against the concentration obtained from ICP-MS and fit to a straight line. All lines fit with R^2>0.998. This was performed for each buffer in duplicate. The buffers were all made to have the appropriate pH at 37° C. and remade if the pH had drifted more than 0.05 pH units upon storage. Anion mimic and carbonate containing buffers were made fresh daily."}, "[7]": {"test": "Determination of q via Eu(III) phosphorescence lifetimes in H2O and D2O", "assay_type": "physicochemical", "experimental": "Determination of q: Europium(III) compound 4 was dissolved in H2O and D2O. The emission was monitored at 614 nm with excitation at 394 nm on a Hitachi F4500 fluorometer operating in Phosphorescence Lifetime (short) mode. The shortest lifetime measurable with this instrument is about 0.3 ms. Fifteen scans were averaged and fit to a monoexponential decay to give phosphorescent lifetimes. T(D2O)=1.274 ms; T (H2O)=0.527 ms. Using the equation of Supkowski and Horrocks (See, e.g., Supkowski and Horrocks, Inorg. Chim. Acta 2002, 340, 44-48), q=0.89 while the equation from Beeby et al. ^40generates q=1.04."}, "[8]": {"conditions": "10 mM MOPS, 100 mM NaCl, pH=7.4, 60 MHz"}, "[9]": {"conditions": "10 mM pyridine, 100 mM sodium chloride buffer, pH=5.0, 60 MHz"}, "[10]": {"conditions": "100 mM acetate buffer, pH=5.0, 60 MHz"}, "[11]": {"conditions": "100 mM sodium phosphate, 0.01% (w/v) BSA, pH=7.4, 60 MHz"}}}
{"compound": "O=[N+]([O-])c1cc(CO)ccc1O", "note": "[4-hydroxy-3-nitrobenzyl alcohol]", "values": [{"measurement": "pKa", "setting": "[1]", "result": "about 7.5"}]}
{"compound": "O=C([O-])CN1CCN(CCNC(=O)OCc2ccc(O[C@@H]3O[C@H](C(=O)O)[C@@H](O)[C@H](O)[C@H]3O)c([N+](=O)[O-])c2)CCN(CC(=O)[O-])CCN(CC(=O)[O-])CC1.[Gd+3]", "note": "[Compound 1, Gadolinium(III) 1-(4-(2-(1-(4,7,10-tris-carboxymethyl-(1,4,7,10-tetrazaacyclododecyl)))-ethylcarbamoyloxymethyl)-2-nitrophenyl)-β-D-glucopyronuronate]", "values": [{"measurement": "presence of substrate in reaction mixture by LC/MS", "setting": "[2]", "result": "disappeared"}, {"measurement": "initial rate", "setting": "[3]; phosphate/BSA (100 mM sodium phosphate, 0.01% BSA)", "result": "158 ± 34", "unit": "nmol product/h/mg enzyme"}, {"measurement": "initial rate", "setting": "[3]; phosphate/BSA/carbonate (24 mM NaHCO3)", "result": "148 ± 26", "unit": "nmol product/h/mg enzyme"}, {"measurement": "time to complete conversion", "setting": "[3]; pH=5 acetate buffer, enzyme concentration 10% of that at pH=7.4", "result": "≤ 45", "unit": "min"}, {"measurement": "initial rate at pH=7.4 relative to standard substrate 4-methylumbelliferyl-β-D-glucuronide at pH=5.5", "setting": "[3]; pH=7.4 versus literature pH=5.5 data", "result": "roughly 8%"}, {"measurement": "increase in T1 during enzyme incubation (levels off)", "setting": "[4]; 0.2 mM 1, 0.1 mg/ml β-glucuronidase, acetate buffer pH=5.0, around 35 min", "result": 15, "unit": "%"}, {"measurement": "increase in T1 during enzyme incubation", "setting": "[4]; 0.2 mM 1, 1.0 mg/ml β-glucuronidase, human serum, over one hour, curve not saturated", "result": 14, "unit": "%"}, {"measurement": "decrease in T1 of substrate control without enzyme", "setting": "[5]", "result": 2, "unit": "%"}, {"measurement": "relaxivity r1", "setting": "[6]; [8]", "result": "higher value"}, {"measurement": "relaxivity r1", "setting": "[6]; [9]", "result": "3.89 ± 0.05", "unit": "mM⁻¹ s⁻¹"}, {"measurement": "decrease of relaxivity on addition of carbonate to the buffers", "setting": "[6]; pH=7.4", "result": "20-30%"}, {"measurement": "relaxivity r1", "setting": "[6]; [10]", "result": "2.53 ± 0.01", "unit": "mM⁻¹ s⁻¹"}, {"measurement": "relaxivity r1", "setting": "[6]; [11]", "result": 4.73, "unit": "mM⁻¹ s⁻¹"}, {"measurement": "decrease in relaxivity between the pure compounds (1 to 2)", "setting": "[6]; acetate buffer, pH=5.0", "result": 15, "unit": "%"}, {"measurement": "increase in relaxivity from 1 to 2 (dark to bright change)", "setting": "[6]; anion extracellular mimic", "result": 17, "unit": "%"}, {"measurement": "decline of relaxivity in anion extracellular mimic", "setting": "[6]", "result": 22, "unit": "%"}, {"measurement": "relaxivity differential, 1 brighter than 2", "setting": "[6]; human serum", "result": 27, "unit": "%"}, {"measurement": "increase in relaxivity on going from anion mimic to human serum", "setting": "[6]", "result": 240, "unit": "%"}, {"measurement": "drop in relaxivity upon going from 1 to 2", "setting": "[6]; phosphate/BSA buffer (same trend as MOPS), pH=7.4", "result": 20, "unit": "%"}]}
{"compound": "NCCN1CCN(CC(=O)[O-])CCN(CC(=O)[O-])CCN(CC(=O)[O-])CC1.[Gd+3]", "note": "[Compound 2, Gadolinium(III)1-(2-aminoethyl)-4,7,10-(tris-carboxymethyl)-(1,4,7,10-tetrazaacyclododecane)]", "values": [{"measurement": "relaxivity r1", "setting": "[6]; [8]", "result": "comparable to GdHP-DO3A"}, {"measurement": "relaxivity r1", "setting": "[6]; [9]", "result": "4.16 ± 0.09", "unit": "mM⁻¹ s⁻¹"}, {"measurement": "decrease of relaxivity on addition of carbonate to the buffers", "setting": "[6]; pH=7.4", "result": "remained the same within error"}, {"measurement": "relaxivity r1", "setting": "[6]; [10]", "result": "2.16 ± 0.04", "unit": "mM⁻¹ s⁻¹"}, {"measurement": "relaxivity r1", "setting": "[6]; [11]", "result": 3.68, "unit": "mM⁻¹ s⁻¹"}, {"measurement": "decline of relaxivity in anion extracellular mimic", "setting": "[6]", "result": 6, "unit": "%"}, {"measurement": "increase in relaxivity on going from anion mimic to human serum", "setting": "[6]", "result": 150, "unit": "%"}]}
{"compound": "CC(O)CN1CCN(CC(=O)[O-])CCN(CC(=O)[O-])CCN(CC(=O)[O-])CC1.[Gd+3]", "note": "(stereo not drawn) [GdHP-DO3A, reference compound]", "values": [{"measurement": "relaxivity r1", "setting": "[6]; [8]", "result": "2.99 ± 0.44", "unit": "mM⁻¹ s⁻¹"}]}
{"compound": "Europium(III) 1-(4-(2-(1-(4,7,10-tris-carboxymethyl-(1,4,7,10-tetrazaacyclododecyl)))-ethylcarbamoyloxymethyl)-2-nitrophenyl)-β-D-glucopyronuronate [Compound 4]", "values": [{"measurement": "phosphorescent lifetime T(D2O)", "setting": "[7]; D2O, excitation 394 nm, emission 614 nm", "result": 1.274, "unit": "ms"}, {"measurement": "q (inner-sphere water molecules)", "setting": "[7]; Eu(III) fluorescence, absence of buffer salts", "result": 1}, {"measurement": "phosphorescent lifetime T (H2O)", "setting": "[7]; H2O, excitation 394 nm, emission 614 nm", "result": 0.527, "unit": "ms"}, {"measurement": "q (inner-sphere water molecules)", "setting": "[7]; equation from Beeby et al.", "result": 1.04}, {"measurement": "q (inner-sphere water molecules)", "setting": "[7]; equation of Supkowski and Horrocks", "result": 0.89}]}
